# According to US11116778B2, “Prodrugs of ALOX-15 inhibitors and methods of using the same” (EMPIRICO INC., priority 2019, dated 2021):
# Legend:
# [1] = target: T1, ALOX15 in human nasal epithelial primary cells (HNEpC) (Homo sapiens, UniProt P16050); experiment: ALOX15 metabolite levels (15-HETE, 13-HODE) in human nasal epithelial primary cells; assay type: cell-based; settings: 5 μM or 1 μM
# T1 construct: host or cells: human nasal epithelial primary cells (HNEpC), treated with IL-13
# T1 sequence (P16050 1-662): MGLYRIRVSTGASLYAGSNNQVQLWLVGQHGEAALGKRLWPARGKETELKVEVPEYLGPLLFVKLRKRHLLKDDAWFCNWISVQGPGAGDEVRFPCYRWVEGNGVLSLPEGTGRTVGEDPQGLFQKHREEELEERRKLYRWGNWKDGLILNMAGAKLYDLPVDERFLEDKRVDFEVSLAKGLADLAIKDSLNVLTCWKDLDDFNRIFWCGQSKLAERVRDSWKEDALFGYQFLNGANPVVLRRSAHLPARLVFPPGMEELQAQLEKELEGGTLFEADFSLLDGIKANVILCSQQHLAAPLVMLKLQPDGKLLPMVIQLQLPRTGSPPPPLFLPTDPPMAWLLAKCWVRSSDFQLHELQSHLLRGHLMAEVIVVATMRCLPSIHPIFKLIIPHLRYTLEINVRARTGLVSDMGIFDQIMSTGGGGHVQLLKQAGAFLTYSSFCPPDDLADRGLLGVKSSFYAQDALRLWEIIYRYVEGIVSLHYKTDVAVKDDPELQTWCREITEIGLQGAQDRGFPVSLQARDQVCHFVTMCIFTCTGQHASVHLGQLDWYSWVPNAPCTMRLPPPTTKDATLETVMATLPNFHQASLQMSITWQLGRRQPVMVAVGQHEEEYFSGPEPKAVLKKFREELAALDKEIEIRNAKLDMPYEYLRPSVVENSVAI
# Experimental: (§1) Human nasal epithelial primary cells (HNEpC) (PromoCell GmbH, Heidelberg, Germany) were cultured according to the manufacturer in provided Primary Cell media in 24 well plates at a density of 25,000 cells per well. Cells were treated with 5 μM or 1 μM of compound 5 or vehicle only (water) in media containing 20 ng/mL IL-13 for 24 hours in a 37° C. cell culture incubator. The following day, media was replaced and fresh media containing 20 ng/mL IL-13 and compound 5 or vehicle was added to each well, then incubated again for 24 hours in a 37° C. cell culture incubator. The process was repeated once more for a 24-hour period.
# (§2) To determine levels of arachidonic acid and linoleic acid metabolites after compound treatment, cell media was replaced with fresh Primary Cell media without IL-13. ALOX15 substrate (arachidonic acid or linoleic acid) was added to each well at a concentration of 1.5 μM and cells further incubated 37° C. for 1 hour. Media was collected from each well and quenched with an equal volume of LC/MS extraction buffer (methanol, 60 mM ascorbic acid, 0.1% acetic acid).
# 15-HETE and 13-HODE were quantified using LC-MS/MS (QTrap5500, Applied Biosystems). Q1/Q3 masses: 319.10/219.10 for 15-HETE and 295.10/195.10 Da for 13-HODE. Deuterated 15-HETE (Cayman Chemical) was used as the internal standard. The Q1/Q3 masses are 327.10/184.10 Da for the 15-HETE deuterated standard. […]
# [2] = system: Human nasal epithelial primary cells (HNEpC); experiment: Levels of compound 5 and compound 3 in media of human nasal epithelial primary cells, LC-MS/MS; assay type: in vitro ADME; settings: HNEpC treated with 5 μM or 1 μM compound 5
# Experimental: as §1, §2
# From the quenched media samples, compound 5 and compound 3 were also quantified. Compound 3 was quantified using LC-MS/MS (QTrap5500, Applied Biosystems). […] Compound 5 was quantified using LC-MS/MS (QTrap5500, Applied Biosystems). […]
smiles,measurement,setting,value
"O=C(Nc1ccc(F)cc1Cl)c1nn(COP(=O)(O)O)c(Cl)c1Cl [compound 5, (4,5-dichloro-3-((2-chloro-4-fluorophenyl)carbamoyl)-1H-pyrazol-1-yl)methyl dihydrogen phosphate]",15-HETE produced versus vehicle alone (FIG. 4),"[1]; 3 x 24 hours with 20 ng/mL IL-13, then 1.5 μM arachidonic acid 1 hour",less
same,13-HODE produced versus vehicle alone (FIG. 5),"[1]; 3 x 24 hours with 20 ng/mL IL-13, then 1.5 μM linoleic acid 1 hour",less
same,conversion of compound 5 to compound 3 in quenched media samples (FIG. 6),[2],majority of compound 5 was converted to compound 3
